In patent US4303785A, “Antitumor anthracycline antibiotics” (priority 1978, dated 1981):

Test system: L1210 cells
Experiment: animal or person
Format: in vivo, CDF1 mice
Settings: for Antitumor Activity (T/C, prolongation rate of survival day): once daily for 10 days; for response vs control in vivo at 0.15 mg/kg / response vs control in vivo at 0.31 mg/kg / response vs control in vivo at 0.625 mg/kg / response vs control in vivo at 1.25 mg/kg / response vs control in vivo at 2.5 mg/kg / response vs control in vivo at 5 mg/kg: Mus musculus, L1210, ip, 1080 h; for response vs control in vivo at 0.15 mg/kg: read-out: Antitumor Activity (T/C, prolongation rate of survival day), 0.15 mg/kg/day i.p., once daily for 10 days; for response vs control in vivo at 0.31 mg/kg: read-out: Antitumor Activity (T/C, prolongation rate of survival day), 0.31 mg/kg/day i.p., once daily for 10 days; for response vs control in vivo at 0.625 mg/kg: read-out: Antitumor Activity (T/C, prolongation rate of survival day), 0.625 mg/kg/day i.p., once daily for 10 days; for response vs control in vivo at 1.25 mg/kg: read-out: Antitumor Activity (T/C, prolongation rate of survival day), 1.25 mg/kg/day i.p., once daily for 10 days; for response vs control in vivo at 2.5 mg/kg: read-out: Antitumor Activity (T/C, prolongation rate of survival day), 2.5 mg/kg/day i.p., once daily for 10 days; for response vs control in vivo at 5 mg/kg: read-out: Antitumor Activity (T/C, prolongation rate of survival day), 5 mg/kg/day i.p., once daily for 10 days
Experimental: D. Representative compounds of general formula I" were tested against experimental animal tumors as follows: […]
CDF1 mice were administered intraperitoneally (i.p.) with 1×10^5 cells/mouse of L1210 cells. After 24 hours had elapsed since inoculation, the mice were administered the test compounds intraperitoneally once daily for 10 consecutive days and observed for a 45 day period.
The antitumor activity was shown by the prolongation rate of survival day (T/C, %) to the survival day of control mice injected with physiological saline.

Row | Structure (SMILES) | Antitumor Activity (T/C, prolongation rate of survival day) (5 mg/kg/day i.p.) | response vs control in vivo at 0.15 mg/kg | response vs control in vivo at 0.31 mg/kg | response vs control in vivo at 0.625 mg/kg | response vs control in vivo at 1.25 mg/kg | response vs control in vivo at 2.5 mg/kg | Antitumor Activity (T/C, prolongation rate of survival day) (0.15 mg/kg/day i.p.) | Antitumor Activity (T/C, prolongation rate of survival day) (0.31 mg/kg/day i.p.) | Antitumor Activity (T/C, prolongation rate of survival day) (0.625 mg/kg/day i.p.) | Antitumor Activity (T/C, prolongation rate of survival day) (1.25 mg/kg/day i.p.) | Antitumor Activity (T/C, prolongation rate of survival day) (2.5 mg/kg/day i.p.) | response vs control in vivo at 5 mg/kg
1 | COc1cccc2c1C(=O)c1c(O)c3c(c(O)c1C2=O)C[C@@](O)(C(=O)CO)C[C@@H]3O[C@H]1C[C@H](N)[C@H](OC(C)OCC(C)C)[C@H](C)O1 (single isomer, unassigned) [Example 9-a, 4'-O-(1-isobutyloxyethyl) adriamycin a] | 257% | 105% | 105% | 112% | 125% | 151% |  |  |  |  |  | 
2 | COc1cccc2c1C(=O)c1c(O)c3c(c(O)c1C2=O)C[C@@](O)(C(=O)CO)C[C@@H]3O[C@H]1C[C@H](N)[C@H](OC2CCCO2)[C@H](C)O1 (single isomer, unassigned) [Example 5-b, 4'-O-tetrahydrofuranyl adriamycin b] | 256% |  |  |  |  |  | 122% | 128% | 141% | 154% | 230% | 
3 | COc1cccc2c1C(=O)c1c(O)c3c(c(O)c1C2=O)C[C@@](O)(C(=O)CO)C[C@@H]3O[C@H]1C[C@H](N)[C@H](OC2CCCC(COC(C)=O)O2)[C@H](C)O1 (stereo partly shown) [Example 6, 4'-O-(6-acetoxymethyltetrahydropyranyl) adriamycin] |  | 100% | 88% | 106% | 118% | 118% |  |  |  |  |  | 141%
4 | COc1cccc2c1C(=O)c1c(O)c3c(c(O)c1C2=O)C[C@@](O)(C(=O)CO)C[C@@H]3O[C@H]1C[C@H](N)[C@H](OC(C)OCC(C)C)[C@H](C)O1 (single isomer, unassigned) [Example 9-b, 4'-O-(1-isobutyloxyethyl) adriamycin b] | 303% |  |  |  |  |  | 99% | 118% | 105% | 118% | 158% | 
5 | CCCCOC(C)O[C@@H]1[C@H](C)O[C@@H](O[C@H]2C[C@](O)(C(C)=O)Cc3c(O)c4c(c(O)c32)C(=O)c2c(OC)cccc2C4=O)C[C@@H]1N (single isomer, unassigned) [Example 18-a, 4'-O-(1-butyloxyethyl) daunomycin a] | 144% | 110% | 103% | 110% | 116% |  |  |  |  |  | 116% | 
6 | COc1cccc2c1C(=O)c1c(O)c3c(c(O)c1C2=O)C[C@@](O)(C(=O)CO)C[C@@H]3O[C@H]1C[C@H](N)[C@H](OC2CCCO2)[C@H](C)O1 (single isomer, unassigned) [Example 5-a, 4'-O-tetrahydrofuranyl adriamycin a] | 212% |  |  |  |  |  | 115% | 115% | 135% | 189% | 288% | 
7 | COc1cccc2c1C(=O)c1c(O)c3c(c(O)c1C2=O)C[C@@](O)(C(=O)CO)C[C@@H]3O[C@H]1C[C@H](N)[C@H](OC(C)OCCCCCC(C)C)[C@H](C)O1 (single isomer, unassigned) [Example 10-b, 4'-O-(1-(6-methylheptyloxy)ethyl) adriamycin b] | 118% |  |  |  |  |  | 105% | 105% | 112% | 112% | 105% | 
8 | CCCCOC(C)O[C@@H]1[C@H](C)O[C@@H](O[C@H]2C[C@](O)(C(=O)CO)Cc3c(O)c4c(c(O)c32)C(=O)c2c(OC)cccc2C4=O)C[C@@H]1N (single isomer, unassigned) [Example 8-b, 4'-O-(1-butyloxyethyl) adriamycin b] | 288% |  |  |  |  |  | 100% | 100% | 106% | 119% | 138% | 
9 | COc1cccc2c1C(=O)c1c(O)c3c(c(O)c1C2=O)C[C@@](O)(C(C)=O)C[C@@H]3O[C@H]1C[C@H](N)[C@H](OC2CCCC(OC)O2)[C@H](C)O1 (single isomer, unassigned) [Example 14-b, 4'-O-(6-methoxytetrahydropyranyl) daunomycin b] | 463% |  |  |  |  |  | 94% | 100% | 106% | 113% | 131% | 
10 | CCOC(C)O[C@@H]1[C@H](C)O[C@@H](O[C@H]2C[C@](O)(C(C)=O)Cc3c(O)c4c(c(O)c32)C(=O)c2c(OC)cccc2C4=O)C[C@@H]1N (single isomer, unassigned) [Example 16-a, 4'-O-(1-ethyloxyethyl) daunomycin a] | 217% | 96% | 96% | 104% | 102% |  |  |  |  |  | 157% | 
11 | COc1cccc2c1C(=O)c1c(O)c3c(c(O)c1C2=O)C[C@@](O)(C(=O)COC(C)=O)C[C@@H]3O[C@H]1C[C@H](N)[C@H](OC2CCCCO2)[C@H](C)O1 (single isomer, unassigned) [Example 1-a, 14-O-acetyl-4'-O-tetrahydropyranyl adriamycin a] |  |  |  | 195% | 228% |  |  | 203% |  |  | 239% | 225%
12 | COc1cccc2c1C(=O)c1c(O)c3c(c(O)c1C2=O)C[C@@](O)(C(=O)COC(C)=O)C[C@@H]3O[C@H]1C[C@H](N)[C@H](OC2CCCCO2)[C@H](C)O1 (single isomer, unassigned) [Example 1-b, 14-O-acetyl-4'-O-tetrahydropyranyl adriamycin b] | 241% |  |  |  |  |  |  | 145% | 184% | 220% | 218% | 
